This is an account of results in patent US20240245647A1, “ISOMEROHYDROLASE INHIBITOR FOR TREATMENT OF ATROPHIC FORM OF AGE-RELATED MACULAR DEGENERATION AND STARGARDT DISEASE” (The Trustees of Columbia University in the City of New York, priority 2021, published 2024).

One series addresses T1, RPE65 (Gallus gallus, UniProt Q9YGX2).
T1 sequence (Q9YGX2 1-533): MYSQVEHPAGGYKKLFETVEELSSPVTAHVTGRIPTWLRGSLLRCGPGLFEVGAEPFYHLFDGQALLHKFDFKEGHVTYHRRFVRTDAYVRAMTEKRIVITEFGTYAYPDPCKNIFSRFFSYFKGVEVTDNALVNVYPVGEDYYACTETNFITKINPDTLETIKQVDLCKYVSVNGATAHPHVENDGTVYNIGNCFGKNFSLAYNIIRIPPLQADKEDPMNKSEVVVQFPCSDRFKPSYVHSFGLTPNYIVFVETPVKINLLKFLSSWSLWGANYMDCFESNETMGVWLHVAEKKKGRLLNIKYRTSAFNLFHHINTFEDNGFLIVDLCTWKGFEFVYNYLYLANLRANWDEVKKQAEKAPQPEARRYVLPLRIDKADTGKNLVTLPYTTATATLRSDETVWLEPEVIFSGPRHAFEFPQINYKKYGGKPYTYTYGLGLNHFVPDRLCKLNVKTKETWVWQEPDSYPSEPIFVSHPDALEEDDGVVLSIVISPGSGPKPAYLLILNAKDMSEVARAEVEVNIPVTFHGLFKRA
The series can be described thus: Liposome-based isomerase assay with purified RPE65. The class given is biochemical, chicken. As for the experimental part:
FIG. 3. Uncompetitive inhibition of RPE65 isomerase by RPE65-61. All-trans-retinyl ester incorporated in liposomes was used as a substrate for purified RPE65 in the isomerase assay. (FIG. 3A) HPLC elution profile of the reaction products without inhibitor; (FIG. 3B) with 180 nM of RPE65-61; Peak 1, retinyl esters; Peak 2, 11-cis-retinol; Peak 3, all-trans-retinol. (FIG. 3C) Lineweaver-Burk plot of 11-cis-retinol generated by RPE65. Liposomes with increasing concentrations (S) of all-trans-retinyl palmitate were incubated with 25 μg of purified chicken RPE65 in the absence (♦) or in the presence of RPE65-61 (180 nM) (▪).
All-trans [11,12-^3H]-retinol (1 mCi/ml, 45.5 Ci/mmol, Perkin Elmer, Boston, MA) in N,N-dimethyl formamide (DMF) was used as the substrate for the isomerohydrolase assay. Bovine RPE microsomes were prepared as described previously. […] The upper layer was collected and the generated retinoids were analyzed by normal phase HPLC as described (Moiseyev, G. et al. 2003). […] The isomerohydrolase activity was calculated from the area of the 11-cis retinol peak using Radiomatic 610TR software (Perkin Elmer, Boston, MA) with synthetic 11-cis [^3H]-retinol as a standard. […] The retinoid profile after completion of the reaction was analyzed by HPLC where the peaks were identified by co-elution with retinoid standards. […]

A further series has as its system VAP-1. The series can be described thus: in vitro. The following applies: male, Beagle, dog, plasma, pH 7.4.
A short description of series [1]: Sequestration of all-trans-retinal (atRAL) in vitro. Particulars: 100 μM compound, equimolar atRAL, 30 min.
Experimental: Test compounds (100 μM) were incubated with equimolar amounts of all-trans-retinal for 30 min. The UV-vis spectra were collected and the concentration of all-trans-retinal was assessed based on the 370 nm absorbance. (FIG. 11A) Graph bars show mean atRAL levels normalized to DMSO; error bars show SD; one-way ANOVA with Holm-Sidak post-hoc test was used for statistical analysis; *P<0.05; ****P<0.0001.
For series [2], the system named is cGAS/STING signal pathway. The series can be described thus: cGAS/STING pathway activation after LIRD (Western blot). The class given is in vivo, BALB/c mice. Particulars: 2 mg/kg. On the procedure:
FIG. 8. Elevated protein levels of cGAS-STING pathway in BALB/c mice. The CGAS, STING and phosphorylated NF-κB (pp65). (FIGS. 8A-8C) Retinas were harvested and cGAS and STING protein levels were measured by Western blot analysis with β-actin as loading control and densitometry quantification. (FIGS. 8D-8E) Levels of phosphorylated NF-κB (p-NF-κB) were determined by Western blotting. Total NF-κB (p65) was used as an internal control and densitometry quantification. Each lane represents an individual mouse. (FIGS. 8F-8G) Photoreceptor cell apoptosis was evaluated by TUNEL on the retinal sections at the dose of 2 mg/kg in BALB/c mice and correlating quantitative analysis. Student's t-test was used (n=5, mean±SEM, *P<0.05, **<0.01).
To further evaluate the effect of RPE65-61 on retinal apoptosis, retinal sections from LIRD mice were used for Terminal deoxynucleotidyltransferase dUTP nick-end labeling (TUNEL) with the In Situ Cell Death Detection Kit (Millipore/sigma Cat #:11684795910). TUNEL-positive photoreceptor cells were quantified to evaluate the effects of RPE65-61 as described (Rajala, A. et al. 2018; Ma, H. et al. 2020).
(Immunoblotting shows a protein as a band on a membrane.)

Experimental for VAP-1: Studies were carried out in mixed-gender human plasma (Lot #HMN330460) and male Beagle dog plasma (Lot #BGL118112), obtained from BioIVT and collected on sodium heparin. Plasma was adjusted to pH 7.4 prior to initiating the experiments. DMSO stocks were first prepared for the test articles. Aliquots of the DMSO solutions were dosed into 1 mL of plasma, which had been pre-warmed to 37° C., at a final test article concentration of 1 μM. The vials were kept in a benchtop Thermomixer® for the duration of the experiment. Aliquots (100 μL) were taken at each time point (0, 15, 30, 60, and 120 minutes) and added to 96-well plates, which had been pre-filled with 300 μL of acetonitrile (ACN). Samples were stored at 4° C. until the end of the experiment. After the final time point was sampled, the plate was mixed and then centrifuged at 3,000 rpm for 10 minutes. Aliquots of the supernatant were removed, diluted 1:1 into distilled water, and analyzed by LC-MS/MS. The peak area response ratio to internal standard (PARR) was compared to the PARR at time 0 to determine the percent of test article remaining at each time point. Half-lives were calculated using GraphPad software, fitting to a single-phase exponential decay equation.

What is called Ki is a measure of affinity in units of concentration, obtained from inhibition or displacement. What is called half-life is how long it takes for the measured level to halve. A higher half-life goes with slow decline. In the case of `N=S(=O)(CCN)c1cccc(OCC2CCCCC2)c1` (racemic) [RPE65-61, (±)-(2-aminoethyl) (3-(cyclohexylmethoxy)phenyl) (imino)-λ^6-sulfanone], the “mode of RPE65 inhibition” value at RPE65 (liposome-based assay with recombinant RPE65) is “uncompetitive inhibitor”. At RPE65 (liposome-based assay, 180 nM inhibitor), this molecule returned an inhibitory constant (Ki) of 150 nM. This molecule also had a half-life at 1 μM in the series on VAP-1 of 35.3 min. In addition, the atRAL reduction in series [1] was determined as 80%. Moreover, the “activation of cGAS/STING signal pathway in RPE and photoreceptor cells” value in series [2] is “protected RPE and photoreceptor cells from the activation of cGAS/STING signal pathway”.
